Values belong to the compound of their own block, whether it stands above or below them.
What was measured:
[1] = target: T1, chimeric receptor containing the EGFR extracellular domain and the HER2 intracellular kinase domain (Homo sapiens, UniProt P04626); experiment: EGFR-HER2 chimeric receptor whole cell kinase assay (E/HER2-3T3); assay type: cell-based; conditions: Table VI, cellular kinase assay
T1 construct: P00533 (Epidermal growth factor receptor)
From the text: (§1) This example illustrates the ability of the exemplary compounds to inhibit receptor tyrosine kinases, such as HER2 and/or EGFR. The following target cells were used for cellular kinaseassays: NIH3T3 clone C7 (Honegger et al., supra) engineered to over-express human EGF receptor; NIH3T3 cells engineered to over-express a chimeric receptor containing the EGFR extracellular domain and the HER2 intracellular kinase domain; the human mammary carcinoma line BT474 (ATCC HTB2) expressing HER2; and the human glioblastoma line U1242 that expresses PDGFR-β. Growth assays were carried out using human mammary epithelial SKBR3 (ATCC HTB30) cells, SKOV3 (ATCC HTB77) human ovarian cancer cell line, A431 cells, MCF7 human breast carcinoma cells, MCF7 cells overexpress the HER2 kinase (MCF7-HER2), NIH3T3 cells, and NIH3T3 cells overexpressing the HER2 kinase (3T3-HER2).
2. EGFR-HER2 Chimeric Receptor
HER2 kinase activity (EGFR-3T3) in whole cells was measured as described below:
The following protocol was used:
A. Coat ELISA plates (Corning, 96 well, Cat. #25805-96) with 05-101 antibody at 0.5 μg per well in PBS, 100 μl final volume/well, and store overnight at 4° C. Coated plates are good for up to 10 days when stored at 4° C.
B. On day of use, remove coating buffer and replace with 100 μl blocking buffer (5% Carnation Instant Non-Fat Dry Milk in PBS). Incubate the plate, shaking, at room temperature (about 23° C. to 25° C.) for 30 minutes. Just prior to use, remove blocking buffer and wash plate 4 times with TBST buffer.
A. An NIH3T3 cell line overexpressing a chimeric receptor containing the EGFR extracellular domain and extracellular HER2 kinase domain can be used for this assay.
A. Choose dishes having 80-90% confluence for the experiment. Trypsinize cells and stop reaction by adding 10% fetal bovine serum. Suspend cells in DMEM medium (10% CS DMEM medium) and centrifuge once at 1500 rpm, at room temperature for 5 minutes.
B. Resuspend cells in seeding medium (DMEM, 0.5% bovine serum), and count the cells using trypan blue. Viability above 90% is acceptable. Seed cells in DMEM medium (0.5% bovine serum) at a density of 10,000 cells per well, 100 μl per well, in a 96 well microtiter plate. Incubate seeded cells in 5% CO2 at 37° C. for about 40 hours.
A. Check seeded cells for contamination using an inverted microscope. Dilute drug stock (10 mg/ml in DMSO) 1:10 in DMEM medium, then transfer 5 μl to a test well for a final drug dilution of 1:200 and a final DMSO concentration of 1%. Control wells receive DMSO alone. Incubate in 5% CO2 at 37° C. for two hours.
A. Prepare EGF ligand: dilute stock EGF in DMEM so that upon transfer of 10 μl dilute EGF (1:12 dilution), 100 nM final concentration is attained.
B. Prepare fresh HNTG* sufficient for 100 μl per well; and place on ice.
C. After 120 minutes incubation with drug, add prepared EGF ligand to cells, 10 μl per well, to a final concentration of 100 nM. Control wells receive DMEM alone. Incubate, shaking, at room temperature, for 5 minutes.
D. Remove drug, EGF, and DMEM. Wash cells twice with PBS. Transfer HNTG* to cells, 100 μl per well. Place on ice for 5 minutes. Meanwhile, remove blocking buffer from other ELISA plate and wash with TBST as described above.
E. With a pipette tip securely fitted to a micropipettor, scrape cells from plate and homogenize cell material by repeatedly aspirating and dispensing the HNTG* lysis buffer. Transfer lysate to a coated, blocked, and washed ELISA plate. Incubate shaking at room temperature for one hour.
F. Remove lysate and wash 4 times with TBST. Transfer freshly diluted anti-Ptyr antibody to ELISA plate at 100 μl per well. Incubate shaking at room temperature for 30 minutes in the presence of the anti-Ptyr antiserum (1:3000 dilution in TBST).
G. Remove the anti-Ptyr antibody and wash 4 times with TBST. Transfer the freshly diluted TAGO anti-rabbit IgG antibody to the ELISA plate at 100 μl per well. […]

[2] = test system: NIH3T3 cells overexpressing the HER2 kinase (3T3-HER2); experiment: 3T3 growth assay, HER2C7 cells (3T3-HER2); assay type: cell-based; conditions: Mus musculus, NIH3T3, 96 h, Table VI, 2% FBS, 4 days
From the text: as §1
The 3T3 growth assay was carried out as follows:
(1) Dulbecco's Modified Eagle Medium (D-MEM), Gibco 11965-050;
(4) Fetal Bovine Serum Certified, Gibco 16000-028;
(5) Dulbecco's Phosphate-Buffered Saline (D-PBS), Gibco 14190-029;
(6) Sulforhodamine B (SRB), Sigma S-9012. 0.4% SRB in 1% acetic acid;
(7) 10 mM Tris-base, Fisher BP152-5;
(8) 10% TCA, Trichloroacetic acid, Fisher A322-500;
(9) 96-well flat bottom plate (sterile), Corning 08-757-155;
(10) 100 ml reagent reservoir 9 (sterile), Matrix Technologies Corporation, 8086;
(11) Sterile pipet tips, Fisher 21-197-8E;
NIH3T3C7 cells in 10% CS+2 mM GLN DMEM HER2C7 cells in 2% FBS+2 mM GLN DMEM
(1) HER2C7 (engineered to express HER2) and NIH3T3C7 (as the control) cells are used for this assay. NIH3T3C7 cells are seeded at 2500 cells/well, […] in 10% CS+2 mM GLN DMEM, in a 96 well plate; HER2C7 cells are seeded at 6000 cells/well, 100 μl/well in 2% FBS+2 mM GLN DMEM, in a 96 well plate. Cells are incubated at 37° C., 5% CO2 overnight to allow for cell attachment to the plate;
(2) The test compound is added to the cells at day 2. The compounds are prepared in the appropriate growth medium (10% CS+2 mM) GLN DMEM for NIH3T3C7 cells; 2% FBS+2 mM GLN DMEM for HER2C7 cells) in a 96 well plate, and serially diluted. A total of 100 μl/well medium of the diluted compounds is added into the cells. The total volume of each well is 200 μl. Quadruplicates (wells) and 11 concentration points are applied to each compound tested.
(3) After the cells are treated with the compound for 4 days, the cells are washed with PBS and fixed with 200 μl/well ice-cold 10% TCA for one hour at 0-5° C. condition.
(4) Remove TCA and rinse wells 5 times with deionized water. Dry plates upside down with paper towels. Stain cells with 0.4% SRB at 100 μl/well for 10 minutes.
(5) Pour off SRB and rinse plate 5 times with 1% acetic acid. Dry plate completely.
(6) Solubilize the dye with 10 mM Tris-base at 100 μl/well for 10 minutes on a shaker.
(7) Read the plate at dual wavelengths at 570 nm and 630 nm on Dynatech Elisa plate reader.

IC50 [1]: > 100 µM
Compound: CC(C)c1cc(/C=C(\C#N)C(=S)NCCCc2ccccc2)cc(C(C)C)c1O [Compound M24, (E)-3-(3,5-Diisopropyl-4-hyrdroxyphenyl)-2-[(3-phenyl-n-propyl)aminothiocarbonyl]acrylonitrile]

IC50 [1]: > 100 µM
Compound: N#C/C(=C\c1ccc(O)c(O)c1)C(=S)NCc1ccccc1 [Compound M13]

IC50 [1]: > 100 µM
Compound: CC(C)(C)c1cc(/C=C(\C#N)C(=O)Nc2ccc(C(F)(F)F)cc2)cc(C(C)(C)C)c1O [Compound M35, (E)-3-(3,5-di-t-Butyl-4-hydroxyphenyl)-2-[(4-trifluoromethyl)phenylaminocarbonyl]acrylonitrile]
IC50 [2]: 0.25 µM

IC50 [1]: > 100 µM
Compound: CC(C)c1cc(/C=C(\C#N)S(=O)(=O)CC#N)cc(C(C)C)c1O [Compound M27]
IC50 [2]: 50 µM

IC50 [1]: > 100 µM
Compound: N#C/C(=C\c1ccc(O)c(O)c1)C(=O)Nc1cccc(C(F)(F)F)c1 [Compound M15]

IC50 [1]: > 100 µM
Compound: CC(C)(C)c1cc(/C=C(\C#N)S(=O)(=O)c2ccccc2)cc(C(C)(C)C)c1O [Compound M33, (E)-3-(3,5-di-t-Butyl-4-hydroxyphenyl)-2-(phenylsulfonyl)acrylonitrile]
IC50 [2]: 9 µM

IC50 [1]: > 100 µM
Compound: CC(C)c1cc(/C=C(\C#N)C(=O)NCCCc2ccccc2)cc(C(C)C)c1O [Compound M21, (E)-3-(3,5-Diisopropyl-4-hydroxyphenyl)-2-[(3-phenyl-n-propyl)aminocarbonyl]acrylonitrile]
IC50 [2]: 70 µM

IC50 [1]: > 100 µM
Compound: CC(C)(C)c1cc(/C=C(\C#N)S(=O)(=O)CC#N)cc(C(C)(C)C)c1O [Compound M36, (E)-3-(3,5-di-t-Butyl-4-hydroxyphenyl)-2-(cyanomethylsulfonyl)acrylonitrile]

IC50 [1]: 18.3 µM
Compound: CC(C)c1cc(/C=C(\C#N)S(=O)(=O)c2ccccc2)cc(C(C)C)c1O [Compound M30]
IC50 [2]: 12 µM

IC50 [1]: > 100 µM
Compound: CC(C)(C)c1cc(/C=C(\C#N)C(N)=S)cc(C(C)(C)C)c1O [Compound M11]
IC50 [2]: 30 µM

IC50 [1]: > 100 µM
Compound: CC(C)c1cc(/C=C(\C#N)S(=O)(=O)/C(C#N)=C/c2cc(C(C)C)c(O)c(C(C)C)c2)cc(C(C)C)c1O [Compound M29]
IC50 [2]: 15 µM

The remaining lines, values behind:

Compound: CC(C)(C)c1cc(/C=C(\C#N)S(=O)(=O)c2ccccn2)cc(C(C)(C)C)c1O [Compound M34, (E)-3-(3,5-di-t-Butyl-4-hydroxyphenyl)-2-[(pyrid-2-yl)sulfonyl]acrylonitrile]
IC50 [1]: > 100 µM
IC50 [2]: 5.5 µM

Compound: CC(C)c1cc(C=C(C#N)C(N)=C(C#N)C#N)cc(C(C)C)c1O [Compound M22, (E)-2-(1-Amino-2,2-dicyanoethenyl-3-(3,5-diisopropyl-4-hydroxyphenyl)acrylonitrile)]
IC50 [1]: > 100 µM

Compound: Cc1cc(/C=C(\C#N)S(=O)(=O)c2ccccn2)cc(C)c1O [Compound M32]
IC50 [1]: > 100 µM
IC50 [2]: 80 µM

Compound: Cc1cc(/C=C(\C#N)S(=O)(=O)c2ccccc2)cc(C)c1O [Compound M31]
IC50 [1]: > 100 µM
IC50 [2]: > 100 µM

Compound: (E,E)-2-[[-Cyano-2-(3,5-diisopropyl-4-hydroxyphenyl)ethenyl]sulfonyl]-3-(3,5-di-t-butyl-4-hydroxyphenyl)acrylonitrile [Compound M37]
IC50 [1]: > 100 µM

Compound: CC(C)(C)c1cc(/C=C(\C#N)C(=O)NCCCc2ccccc2)cc(C(C)(C)C)c1O [Compound M20, (E)-3-(3,5-di-t-Butyl-4-hydroxyphenyl)-2-[(3-phenyl-n-propyl)aminocarbonyl]acrylonitrile]
IC50 [2]: 4 µM

Compound: CC(C)c1cc(/C=C(\C#N)S(=O)(=O)c2ccccn2)cc(C(C)C)c1O [Compound M26]
IC50 [1]: > 100 µM
IC50 [2]: > 100 µM

— US6596878B2, “Methods and compositions for inhibiting cell proliferative disorders” (Yissum Research & Development Company of the Hebrew …, priority 1994, dated 2003)
